Results as given in patent US20230090708A1, “METHODS AND COMPOSITIONS FOR THE TREATMENT OF HEMANGIOMA” (MASSEY VENTURES LIMITED, priority 2020, published 2023).
≈ marks a conversion by molar mass, not a printed value. Where two headings read alike, the source gives them in different places.

How the values were obtained:
[1] = test system: proliferating hemangioma cell lines (n=9); test: Example 6: single agents and combinations on nine primary cell lines, MTT, CompuSyn combination index; format: cell-based, human; conditions: for dose-response across all cell lines: 1 to 10 μM, 72 hours, n=9
Protocol: (§1) An in vitro cell culture model of infantile hemangioma was developed to assess the impact of renin-angiotensin system inhibitors on cellular proliferation. A primary cell line of proliferating infantile hemangioma cells, including haemangioma stem cells, was derived from a tissue biopsy obtained from patients during the proliferating phase of the disease. The primary cell lines are cultured in 25 cm^2 flasks using standard culture media and conditions. The cultured cells are used to seed 96-well plates with a seed cell concentration of 2500 or 5000 cells per well, with additional culture media (200 μL). All studies are performed in triplicate.
(§2) The plates are incubated overnight to allow cell adherence to the wells. The wells are photographed to confirm cell adherence and confluency. The appropriate drug(s) to be examined are subsequently added to the wells. After 24 hours, one set of plates (experimental and blank) is stopped. The media is aspirated from each well and stored frozen for possible future analyses. Media is added to the wells and an MTT determination is undertaken according to standard protocols. This is repeated at 48 and 72 hours.
(§3) From the triplicate incubations of each drug concentration at each time, as well as for all controls, the mean±standard deviation is calculated. The net survival (optical density value) is calculated by subtracting the appropriate blank mean value from each cell culture. From the MTT data, the percentage of survival of cells in the presence of each concentration of drug after each time of culturing is determined.
A study was undertaken using combinations of ACE inhibitors, beta blockers and angiotensin II type 2 receptor blockers to inhibit proliferating hemangioma cells. […] Patient histories pertaining to each cell line is described in Table 5.
The experimental protocol was performed as per Example 1. Briefly, cells were seeded in 96-well plates at concentrations of 2500 cells/well in triplicate for each drug and drug combination. Drug(s) were added to each well 24 hours after seeding and re-dosed every 24 hours. Cell viability was assessed by MTT assay after 24, 48, and 72 hours. All plates were performed in triplicate. Drugs were assessed alone and in combination, as described in Table 6. Propranolol was used as a model beta blocker, cilazapril as a model ACE inhibitor, and SMM02 (L-159686) as a model AT2Ri. Synergy was measured using the CompuSyn open-source software protocol for quantifying synergism and antagonism that uses the median-effect equation and mass-action laws to generate a combination index (www.compusyn.com). Synergism, additive effects and antagonism are defined as a CI<1, CI=1, and CI>1, respectively.

[2] = test system: proliferating hemangioma cells; test: Experiment 7: different ACEi and beta blockers on one primary cell line, MTT; format: cell-based, human; conditions: for Results Summary: 72 hours, one cell line; for inhibition of proliferating hemangioma cells: 1 μM and 10 μM; for inhibition at 1 µM / inhibition at 10 µM: Homo sapiens, 72 h, read-out: Inhibition vs. Cells + Adjuvant at 72 Hours
Protocol: as §1
as §2, with “After 24 hours, one set of plates (experimental and blank) is stopped.” left out, “protocols.” for “protocols. This is repeated at 48 and 72 hours.”
as §3
Briefly, cells were seeded in 96-well plates at concentrations of 2500 cells/well in triplicate for each drug and drug combination. […] All plates were performed in triplicate. Beta blockers used in the study were (±)-propranolol, R-propranolol, S-propranolol, timolol, and betaxalol.

[3] = test system: proliferating hemangioma cells; test: Example 5: R- and S-beta blockers alone and with cilazapril, MTT; format: cell-based, human
Protocol: An in vitro cell culture model of infantile hemangioma was developed to assess the impact of renin-angiotensin system inhibitors on cellular proliferation. A primary cell line of proliferating infantile hemangioma cells, including haemangioma stem cells, was derived from a tissue biopsy obtained from patients during the proliferating phase of the disease. The primary cell lines are cultured in 25 cm^2 flasks using standard culture media and conditions. The cultured cells are used to seed 96-well plates with a seed cell concentration of 2500 or 5000 cells per well, with additional culture media (200 μL). All studies are performed in triplicate. The plates are incubated overnight to allow cell adherence to the wells. The wells are photographed to confirm cell adherence and confluency. The appropriate drug(s) to be examined are subsequently added to the wells. After 24 hours, one set of plates (experimental and blank) is stopped. The media is aspirated from each well and stored frozen for possible future analyses. Media is added to the wells and an MTT determination is undertaken according to standard protocols. This is repeated at 48 and 72 hours. From the triplicate incubations of each drug concentration at each time, as well as for all controls, the mean±standard deviation is calculated. The net survival (optical density value) is calculated by subtracting the appropriate blank mean value from each cell culture. From the MTT data, the percentage of survival of cells in the presence of each concentration of drug after each time of culturing is determined. The experimental protocol was performed as per Example 1. Briefly, cells were seeded in 96-well plates at concentrations of 2500 cells/well in triplicate for each drug and drug combination. Drug(s) were added to each well 24 hours after seeding and re-dosed every 24 hours. Cell viability was assessed by MTT assay after 24, 48, and 72 hours. All plates were performed in triplicate. […] Timolol and propranolol were used as model beta blockers and cilazapril as a model ACE inhibitor.

[4] = test system: proliferating infantile hemangioma cells derived from multiple patients (n=5); test: Example 4: single agents and combinations on five patient-derived cell lines, MTT; format: cell-based, human; conditions: for Individual Responders at 72 Hours with ≥30% Inhibition vs. Cells + Adjuvant: responders/cell lines; for Results Summary: 72 hours, n=5 cell lines; for Estimated Optimal Dosage Range in vitro / inhibition of all five patient-derived haemangioma cell lines: single agent
Protocol: An in vitro cell culture model of infantile hemangioma was developed to assess the impact of renin-angiotensin system inhibitors on cellular proliferation. A primary cell line of proliferating infantile hemangioma cells, including haemangioma stem cells, was derived from a tissue biopsy obtained from patients during the proliferating phase of the disease. The primary cell lines are cultured in 25 cm^2 flasks using standard culture media and conditions. The cultured cells are used to seed 96-well plates with a seed cell concentration of 2500 or 5000 cells per well, with additional culture media (200 μL). All studies are performed in triplicate. The plates are incubated overnight to allow cell adherence to the wells. The wells are photographed to confirm cell adherence and confluency. The appropriate drug(s) to be examined are subsequently added to the wells. After 24 hours, one set of plates (experimental and blank) is stopped. The media is aspirated from each well and stored frozen for possible future analyses. Media is added to the wells and an MTT determination is undertaken according to standard protocols. This is repeated at 48 and 72 hours. From the triplicate incubations of each drug concentration at each time, as well as for all controls, the mean±standard deviation is calculated. The net survival (optical density value) is calculated by subtracting the appropriate blank mean value from each cell culture. From the MTT data, the percentage of survival of cells in the presence of each concentration of drug after each time of culturing is determined. […] The experimental protocol was performed as per Example 1. Briefly, cells were seeded in 96-well plates at a concentration of 2500 cells/well in triplicate for each drug and drug combination. Drug(s) were added to each well 24 hours after seeding and re-dosed every 24 hours. Cell viability was assessed by MTT assay after 24, 48, and 72 hours. All plates were performed in triplicate. Drugs were assessed alone and in combination as described in Table 3.

[5] = cited from earlier work; for Log P: Table 1
[6] = cited from earlier work; for Half life: short or long acting: in words; for Half life: in vivo
[7] = cited from earlier work
[8] = test system: proliferating IH; conditions: cited from earlier work
[9] = cited from earlier work; remark: listed apart in the source

CC(C)NCC(O)COc1cccc2ccccc12 (stereo not drawn) [S(−) Propranolol, S-propranolol]
dose-response across all cell lines [1]: typical dose-response | Estimated Optimal Dosage Range [2]: 1 to 10 µM | Inhibition vs. Cells + Adjuvant at 72 Hours ([2]; 1 μM): 1 μM - No - 2.07% | Inhibition vs. Cells + Adjuvant at 72 Hours ([2]; 10 μM): 10 μM - Response - 45.68% | Results Summary [2]: Responder | individual isomers compared with the racemic mixture ([3]; alone): as effective alone as the racemic mixture | attenuating hemangioma cell proliferation, propranolol vs timolol enantiomers ([3]; particularly at 1-5 μM): superior to R- and S-timolol

O=C(O)[C@@H]1CN(C(=O)N(c2ccccc2)c2ccccc2)CCN1C(=O)N(c1ccccc1)c1ccccc1 [SMM02, (S)-1,4-bis(N,N-diphenylcarbamoyl)piperazine-2-carboxylic acid]
dose-response across all cell lines [1]: non-linear dose-response | threshold concentration ([1]; single agent, consistent inhibition above it): 2.5 µM | Individual Responders at 72 Hours with ≥30% Inhibition vs. Cells + Adjuvant ([4]; 1 μM): 1 μM - 0/4 | Individual Responders at 72 Hours with ≥30% Inhibition vs. Cells + Adjuvant ([4]; 10 μM): 10 μM - 5/5 | Individual Responders at 72 Hours with ≥30% Inhibition vs. Cells + Adjuvant ([4]; 100 μM): 100 μM - 5/5 | Results Summary [4]: Responder | Estimated Optimal Dosage Range in vitro [4]: 1 to 10 µM | inhibition of all five patient-derived haemangioma cell lines [4]: significantly inhibited

CCCCc1nc(Cl)c(CO)n1Cc1ccc(-c2ccccc2-c2nn[nH]n2)cc1 [Losartan]
Individual Responders at 72 Hours with ≥30% Inhibition vs. Cells + Adjuvant ([4]; 1 μM): 1 μM - 0/5 | Individual Responders at 72 Hours with ≥30% Inhibition vs. Cells + Adjuvant ([4]; 10 μM): 10 μM - 0/5 | Results Summary [4]: Non-Responder | inhibition of all five patient-derived haemangioma cell lines [4]: not

CCOC(=O)[C@H](CCc1ccccc1)N[C@@H](C)C(=O)N1Cc2ccccc2C[C@H]1C(=O)O [Quinapril]
Log P [5]: 3.2 | log P [5]: 3.2 | Half life: short or long acting [6]: Short acting | inhibition of proliferating hemangioma cells [2]: good and similar level of inhibition | Results Summary [2]: Responder | inhibition at 1 µM ([2]; 1 μM): 4.87% | inhibition at 10 µM ([2]; 10 μM): 62.3% | pKa [7]: 3.7 | pKa ([7]; second value): 5.2

CC(C)NCC(O)COc1ccc(CCOCC2CC2)cc1 (stereo not shown) [Betaxolol]
inhibition of proliferating hemangioma cells [2]: no response | Results Summary [2]: Non- | inhibition at 1 µM ([2]; 1 μM): 2.8% | inhibition at 10 µM ([2]; 10 μM): < 0%

C[C@H](CS)C(=O)N1CCC[C@H]1C(=O)O [Captopril]
patients with response scored dramatic ([8]; n of eight patients): 3 | patients with response scored medium ([8]; n of eight patients): 2 | patients with response scored slow ([8]; n of eight patients): 3 | effect on proliferating IH ([8]; oral 1.5 mg/kg daily, eight patients): positive effect in all patients | rebound growth after treatment ceased ([8]; treatment ceased after 14 months): no rebound growth | Solubility [9]: 130 mg/mL (≈ 598 mM)

C[C@H](N[C@@H](CCc1ccccc1)C(=O)O)C(=O)N1[C@H](C(=O)O)C[C@H]2CCCC[C@@H]21 [Trandolaprilat, trandolaprilat]
Half life [6]: 10 h

COc1ccc2c(c1OCc1ccccc1)C[C@@H](C(=O)O)N(C(=O)C(c1ccccc1)c1ccccc1)C2 [EMA401, (S)-5-(benzyloxy)-2-(2,2-diphenylacetyl)-6-methoxy-1,2,3,4-tetrahydroisoquinoline-3-carboxylic acid]
Individual Responders at 72 Hours with ≥30% Inhibition vs. Cells + Adjuvant ([4]; 1 μM): 1 μM - ¼ | Individual Responders at 72 Hours with ≥30% Inhibition vs. Cells + Adjuvant ([4]; 10 μM): 10 μM - 4/5 | Individual Responders at 72 Hours with ≥30% Inhibition vs. Cells + Adjuvant ([4]; 100 μM): 100 μM - 5/5 | Results Summary [4]: Responder | Estimated Optimal Dosage Range in vitro [4]: 5 to 25 µM | inhibition of all five patient-derived haemangioma cell lines [4]: significantly inhibited

CCOC(=O)[C@H](CCc1ccccc1)N[C@@H](C)C(=O)N1CCC[C@H]1C(=O)O [Enalapril]
Log P [5]: 0.07 | Half life: short or long acting [6]: Long acting | inhibition of proliferating hemangioma cells [2]: good and similar level of inhibition | Results Summary [2]: Responder | inhibition at 1 µM ([2]; 1 μM): 1.55% | inhibition at 10 µM ([2]; 10 μM): 67.9% | pKa [7]: 2.97 | pKa ([7]; second value): 5.35

C[C@H](N[C@@H](CCc1ccccc1)C(=O)O)C(=O)N1Cc2ccccc2C[C@H]1C(=O)O [Quinaprilat, quinaprilat]
Half life [6]: 3 h (quinaprilat)

C[C@H](N[C@@H](CCc1ccccc1)C(=O)O)C(=O)N1[C@H](C(=O)O)C[C@@H]2CCC[C@@H]21 [Ramiprilat, ramiprilat]
Half life [6]: 13 to 17 h

CCOC(=O)[C@H](CCc1ccccc1)N[C@@H](C)C(=O)N1[C@H](C(=O)O)C[C@H]2CCCC[C@@H]21 [Trandolapril]
Log P [5]: 3.5 | log P [5]: 3.5 | Half life [6]: 6 h | Half life: short or long acting [6]: Long acting | inhibition of proliferating hemangioma cells [2]: good and similar level of inhibition | Results Summary [2]: Responder | inhibition at 1 µM ([2]; 1 μM): 0.63% | inhibition at 10 µM ([2]; 10 μM): 67.8% | pKa [7]: 3.8 | pKa ([7]; second value): 5.2

O=C(O)CN1C(=O)[C@@H](N[C@@H](CCc2ccccc2)C(=O)O)CCc2ccccc21 [benazeprilat]
Half life [6]: 10 to 11 h

C[C@H](N[C@@H](CCc1ccccc1)C(=O)O)C(=O)N1CCC[C@H]1C(=O)O [enalaprilat]
Half life [6]: 11 h (enalaprilat)
